# According to patent publication US20130259944A1, “METHODS AND COMPOSITIONS FOR TREATING CANCER WITH PLATINUM PARTICLES” (EMORY UNIVERSITY, priority 2012, published 2013):
# Assays:
# [1] = test system: H292 cells (EGFR-positive NSCLC); assay: Intracellular platinum accumulation in H292 cells (ICP-MS); format: cell-based, human; conditions: 0.4 μg/mL, 24 h
# Description: (§1) EGFR-negative H520 cells were used as negative control. […] The cell pellet was digested in 65% (v/v) nitric acid at 75° C. for 2 h. The Pt content was analyzed by ICP-MS. Cellular Pt levels were expressed in ng Pt/10^6 cells. To further check the targeting specificity of EHDDP nanoparticles in vitro, EGFR was knocked down by EGFR small interfering RNAs (siRNA). H292 cells were transfected with EGFR siRNA (sc-29301 from Santa Cruz Bio) (100 pmol) or scrambled siRNA (sc-37007 from Santa Cruz Bio) (100 pmol) as a nonspecific control according to the manufacturer's protocols. Briefly, in a 6-well tissue culture plate, 2×10^5 cells per well were seeded in 2 mL of antibiotic-free RPMI 1640 medium supplemented with 10% FBS and, on the following day, transfected with siRNAs at the final concentration of 100 pmol. […] Mouse anti-β-actin antibody (Trevigen, Gaithersburg, Md.) was used as a sample loading control. Immunostained protein bands were detected with an enhanced chemiluminescence kit (Thermo Scientific, Rockfield, Ill.). […] The data are shown as mean±SD (n=3). DDP-DNA adduct formation was measured using 1×10^7 cells per condition. […] In addition, the expression level of the phosphorylation of H2A.X was detected by Western Blot as described above using the Phospho-Histone H2A.X (Ser139) (20E3) rabbit mAb (Cell Signaling Technology, Inc.).
# [2] = test system: H520 cells (EGFR-negative NSCLC); assay: Intracellular platinum accumulation in H520 cells (ICP-MS); format: cell-based, human; conditions: 24 h
# Description: as §1
# H292 cells [3] = assay: SRB cytotoxicity assay; format: cell-based, human; conditions: 96 h
# Description: H292 and H520 cells maintained in medium with 2% FBS were seeded in 96-well plates at a density of 5000 cells/well overnight prior to drug treatment. […] Cells were fixed for 1 h with 10% cold trichloroacetic acid. Plates were washed five times in water, air-dried, and then stained with 0.4% SRB for 10 min. […] Plates were read in a microplate reader by measuring absorbance at 492 nm. The percent survival was then calculated based upon the absorbance values relative to untreated samples. The experiment was repeated three times.
# H292 cells [4] = assay: Pt-DNA adduct formation in vitro (ICP-MS of purified DNA); format: cell-based, human; conditions: 37° C., 24 h
# Description: as §1
# [5] = Concentration profile of Pt in mice peripheral blood; format: in vivo, nude mice; conditions: for Pt concentration in blood: Pt 2.5 mg/kg
# Description: The whole blood samples were dissolved in 65% (v/v) nitric acid at 75° C. for 2 h, and Pt concentration was measured by ICP-MS.
# [6] = Biodistribution of Pt in organs and tumor of H292 tumor-bearing mice; format: in vivo, nude mice
# Description: (§2) Blood, organs (liver, spleen, kidney, and lung), and tumor tissue were harvested, half of the organs were dissolved in 65% (v/v) nitric acid at 75° C. for 2 h, and Pt concentrations were measured by ICP-MS. The blood and other half of the organs were used to extract DNA, and the Pt concentration in DNA was quantified as described above.
# [7] = Pt-DNA adducts in kidney and tumor in vivo; parameters: species or system nude mice; conditions: single iv dose Pt 2.5 mg/kg
# Description: as §2
structure (smiles),measurement,setting,value
"N.N.[Cl][Pt][Cl] [DDP, cis-diamminedichloroplatinum(II)]",intracellular Pt level,[1],2.49±0.39 ng Pt/10^6 cells
same,intracellular Pt accumulation,[2],3.38±0.42 ng Pt/10^6 cells
same,IC50 (Pt concentration),H292 cells [3],2.12 ± 0.20 µg/mL
same,Pt level associated with cellular DNA (Pt-DNA adducts),H292 cells [4],19.68±4.35 pg Pt/μg DNA
same,Pt concentration in blood,[5]; 30 min after iv injection,1.17±0.12 ng/mg blood
same,Pt concentration in blood,[5]; 8 h after iv injection,0.36±0.09 ng/mg blood
same,time of elimination by the renal system,[5]; discussion statement,< 5 min
same,tumor Pt level,[6]; 10 min after iv injection,3.58±0.91 ng/mg dry tissue
same,Pt concentration in kidney,[6]; 10 min after systemic administration,35.25±5.70 ng/mg dry tissue
same,Pt concentration in kidney,[6]; 4 h,11.9±0.79 ng/mg dry tissue
same,accumulation of Pt in the liver,"[6]; 4 h, single iv dose Pt 2.5 mg/kg",7.71±1.61 ng/mg dry tissue
same,Pt concentration in kidney,[6]; 24 h,6.39±0.67 ng/mg dry tissue
same,tumor Pt level,[6]; 24 h after iv injection,1.48±0.52 ng/mg dry tissue
same,decrease of Pt concentration in the liver,[6]; 24 h compared with 4 h,20%
same,"Pt concentrations in the liver, spleen and kidney, comparison between treatments",[6]; 28 days after treatment,no differences
same,decrease of Pt accumulation in the liver,[6]; from 10 min to 4 h,42.5%
same,decrease of Pt accumulation in the spleen,[6]; from 10 min to 4 h,82.86%
same,decrease in Pt accumulation in the kidney,[6]; within 4 h,65.1%
same,Pt concentration in DNA purified from kidney,[7]; 4 h,71.78±9.02 pg/μg DNA
same,Pt-DNA adducts in NSCLC xenograft tumors,[7]; 4 h,92.21±8.96 pg/μg DNA
same,Pt concentration in DNA purified from kidney,[7]; 24 h,25.72±2.78 pg/μg DNA
same,Pt-DNA adducts in NSCLC xenograft tumors,[7]; 24 h,94.68±15.01 pg/μg DNA
